# In article PMC4229098, “Alzheimer's Therapeutics Targeting Amyloid Beta 1–42 Oligomers I: Abeta 42 Oligomer Binding to Specific Neuronal Receptors Is Displaced by Drug Candidates That Improve Cognitive Deficits” (PLoS ONE, 2014):
# Entries after “also recorded” stand apart in the source; their conditions may differ. Read-outs that look alike come from different tables or passages of the source.
# What was measured:
# [1] = tested on: mature primary hippocampal and cortical cultures; assay: Membrane trafficking assay (MTT formazan exocytosis); type: cell-based, rat; settings: for activity in blocking effects of Abeta oligomers: control compounds; for Schild slope: against synthetic oligomers; for reversal of trafficking deficit caused by human patient derived Abeta: compound 0.2 µM, Abeta 1.5 pM; for effect on trafficking of compound alone: no Abeta; for Treatment duration for maximum response: Abeta preparation dosed alone;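 for all read-outs here: mixed neuron and glia cultures from E18 Sprague-Dawley rat embryos, grown 3 weeks in 384-well plates, labeled vesicles quantified by imaging or spectrophotometry as percent of vehicle-treated wells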
# [2] = tested on: C57/BL6 mice injected with Abeta oligomers; assay: Contextual fear conditioning after intrahippocampal Abeta oligomer injection; type: in vivo; settings: 2 µM intrahippocampal; for prevention of Abeta oligomer-induced fear memory deficits: one hour prior to oligomer injection; for effect on fear memory when administered alone: without Abeta
# Description: (§1) All procedures were approved by the Institutional Animal Care and Use and Committee at Columbia University and Stanford University and were in compliance with the Office of Laboratory Animal Welfare and the Guide for the Care and Use of Laboratory Animals, Eighth Edition. Behavioral testing of wild-type, 3–4 month old, male, C57/BL6 mice, injected bilaterally into their hippocampus with Abeta oligomers and testing in the fear conditioning task was done according to published methods. Animals were anesthetized with […] Avertin prior to implantation of cannulas into the hippocampus. Testing of transgenic hAPP Swedish/London mice in the Morris water maze or fear conditioning tasks was done according to published methods, [38]. To measure brain concentration of drugs, brains were homogenized in 1 ml PBS per gram of brain tissue using a handheld homogenizer. Brain homogenate was then extracted with three volumes of ice cold methanol on ice for 15 minutes and centrifuged for 15 min. The supernates were analyzed by LC/MS/MS. Samples were compared to a calibration curve prepared in a similar manner by spiking blank control homogenate with standards prepared in DMSO and then extracted as above. At the end of all behavioral testing, animals were euthanized with CO2 followed by cervical dislocation.
# [3] = tested on: synaptophysin-immunopositive puncta along MAP2-labeled neurites; assay: Synapse counting assay; type: cell-based, rat; settings: for Affects Synapse density in the absence of Aβ: Table S1
# Protocol: Sprague-Dawley rats, 18 days pregnant, were euthanized by CO2 asphyxiation followed by cervical dislocation, and embryos were removed. Hippocampus and cortical tissue from the embryo brains were digested in 2.5% Trypsin (Life Technologies) to dissociate cells. Isolated cells were plated at a density of 4.6×10^4 cells per cm^2 in 384-well poly-D Lysine coated plates (Greiner) in Neurobasal Media (Life Technologies) supplemented with B27 (Life Technologies), Glutamax (Life Technologies) and antibiotics (penicillin, 50 units/ml and streptomycin 50 µg/ml, Life Technologies). Cultures were maintained at 37°C in 5% CO2 with weekly media change for 3 weeks prior to experimentation. These mixed cultures of hippocampal plus cortical neurons and glia were used for all of the in vitro experiments described.
# Cultures were treated with compounds for 60 minutes prior to addition of 6 µM (maximum from trafficking dose-response curve) of synthetic Abeta 1–42 oligomers and incubated for 24 hrs. Cultures were fixed and immunofluorescently labeled and imaged as for the Abeta binding assay. The ThermoFisher/Cellomics Neuronal Profiling bioapplication was used to count synaptophysin-immunopositive puncta along MAP2-labeled neurites. The number of puncta per unit length of neurites was used to determine effects of treatments. To attain statistical power of 80% and a p value of less than 0.05 (determined using G*Power software), twenty replicate wells were treated per experiment plate and compared to control wells on the same plate and experiments were repeated four times.
# [4] = tested on: mouse models of Alzheimer's disease; assay: Behavioral tests (behavioral efficacy summary); type: in vivo, mice; set-up: key to Measured efficacy: statistically significant improvement (+); no significant improvement (-); settings: for Behavioral efficacy: Table S1
# Description: as §1
# sigma-2/PGRMC1 receptor = target: T1, sigma-2/PGRMC1 receptor (Homo sapiens, UniProt Q5BJF2); assay: Sigma-2 radioligand binding; settings: radioligand competition binding; read-out: Ki, binding affinity at the sigma-2/PGRMC1 receptor
# T1 construct: endogenous in cells; host or cells: human Jurkat cells (membranes)
# T1 sequence (Q5BJF2 whole entry): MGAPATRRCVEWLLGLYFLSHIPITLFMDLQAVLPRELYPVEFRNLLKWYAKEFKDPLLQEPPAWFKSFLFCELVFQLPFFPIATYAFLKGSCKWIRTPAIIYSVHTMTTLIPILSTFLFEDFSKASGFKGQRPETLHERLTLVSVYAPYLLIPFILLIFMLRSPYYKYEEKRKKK
# Protocol: Radioligand competition assays were performed in membranes from human Jurkat cells using 5 nM [^3H]1,3-di(2-tolyl) guanidine in the presence of 1 µM (+)-pentazocine with 10 µM haloperidol to define non-specific binding.
# [5] = tested on: neuronal synaptic puncta in hippocampal/cortical cultures; assay: Abeta binding assay, neurons (immunofluorescence of neurite puncta); set-up: species or system rat; settings: for displacement of Abeta oligomers: 15 µM compound added 1 hour after oligomers 0.5 µM, within 1 hour; for prevention of binding of Abeta oligomers to neuronal cultures: 15 µM compound one hour prior to synthetic Abeta oligomers 0.5 µM; for EC50: single site model
# Abeta 1–42 oligomers = target: T2, Abeta 1–42 oligomers (Homo sapiens, UniProt P05067); assay: Oligomer-specific Abeta ELISA (direct action on oligomers); type: biochemical
# T2 construct: purchased California Peptide Inc; American Peptide Company; or University of Pittsburgh Peptide Core facility 641-15; 62-0-80; host or cells: chemical synthesis
# T2 sequence (P05067 672-713): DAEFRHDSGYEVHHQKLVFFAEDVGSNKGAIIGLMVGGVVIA
# Protocol: Determination of oligomeric and monomeric concentrations of Abeta contained in a given Abeta preparation was done according to the method of LeVine. Briefly, total Abeta concentration is measured by two-site ELISA using different capture (6E10 monoclonal antibody, Covance SIG-39320) and detection (4G8- conjugated to biotin, Covance, SIG39240) antibodies and quantifyied with streptavidin-horseradish peroxidase (Millipore catalog number AP308P). Oligomerized Abeta is measured in the same samples by a single-site ELISA in which monoclonal antibodies to the same epitope are used for capture (4G8, Covance SIG-39330) and detection (4G8-biotin). The 4G8-biotin cannot bind to captured monomer because the epitope is blocked by the capture antibody, so only oligomers are detected with this configuration. The streptavidin-horseradish peroxidase therefore reports only oligomeric Abeta which has additional exposed 4G8 epitopes. Monomer concentration is calculated as the difference between total Abeta concentration and oligomer concentration.
# [6] = Brain concentration of compounds (LC/MS/MS); type: in vivo, mice; settings: mouse, 24 h after last dose, read-out: Compound Concentration in brain
# Description: as §1
# [7] = tested on: hAPP Swe/Ldn transgenic mice; assay: Contextual fear conditioning in transgenic mice; type: in vivo; settings: 5.5 months, 9 month old males
# Description: as §1
# [8] = Rattus norvegicus, compound added 1 hr prior to Abeta oligomers, log value, read-out: Prevention Log EC50 ± SE (converted)
# [9] = Rattus norvegicus, compound added 1 hr prior to synthetic Abeta oligomers, read-out: Prevention EC50
# [10] = 1 mg/kg/day s.c. osmotic minipump
# [11] = 10 mg/kg/day s.c. osmotic minipump
# [12] = hAPP Swedish/London transgenic, subcutaneous, 1 mg/kg/day s.c. osmotic minipump
# [13] = hAPP Swedish/London transgenic, subcutaneous, 10 mg/kg/day s.c. osmotic minipump
# [14] = Rattus norvegicus, 1 h, compound added 1 hr after Abeta oligomers, log value, read-out: Treatment Log EC50 ± SE (converted)
# [15] = Rattus norvegicus, 1 h, compound added 1 hr after synthetic Abeta oligomers, read-out: Treatment EC50
# [16] = preparation dosed alone, read-out: EC50 of Abeta preparation
compound,measurement,setting,value
"C[C@]12N[C@H](Cc3ccccc31)c1ccccc12 [MK-801, reference compound]",activity in blocking effects of Abeta oligomers,[1],only memantine was active
COc1ccc(CCC(C)NC2CCCc3ccccc32)cc1 (stereo not shown) [CT01206],EC50,[1]; [8],4.37 µM
same,EC50,[1]; [9],4.3 µM
same,prevention of Abeta oligomer-induced fear memory deficits,[2],not effective
same,effect on fear memory when administered alone,[2],caused fear memory deficits in the absence of Abeta
same,Affects Synapse density in the absence of Aβ,[3],Yes
same,Behavioral efficacy,[4],No
CC(C)=CC(C[C@H](C)c1ccc(C)cc1)NCC(C)C (stereo partly shown) [CT0093],Ki,sigma-2/PGRMC1 receptor,0.054 µM
same,EC50,[1]; [8],4.9 µM
same,EC50,[1]; [9],4.9 µM
same,EC50,"[1]; Rattus norvegicus, compound added 1 hr after Abeta oligomers, log value, read-out: Treatment Log EC50 ± SE (converted)",2 µM
same,EC50,"[1]; Rattus norvegicus, compound added 1 hr after synthetic Abeta oligomers, read-out: Treatment EC50",2 µM
same,Schild slope,[1],1
same,reversal of trafficking deficit caused by human patient derived Abeta,[1],reverse the trafficking deficit
same,effect on trafficking of compound alone,[1],without affecting trafficking on their own
same,prevention of Abeta oligomer-induced fear memory deficits,[2],completely prevented fear memory deficits
same,effect on fear memory when administered alone,[2],no effect on memory
same,Affects Synapse density in the absence of Aβ,[3],No
same,displacement of Abeta oligomers,[5],49±5%
same,prevention of binding of Abeta oligomers to neuronal cultures,[5],93%±2%
same,IC50,"[5]; compound before oligomers, read-out: IC50, Abeta binding, prevention",2.2 µM
same,EC50,"[5]; pretreatment, read-out: EC50, prevention of Abeta binding",2.2 ± 2.4 µM
same,dissociation of preformed oligomers,Abeta 1–42 oligomers,not by CT0109 or CT0093
same,Measured efficacy,[4]; [10],-
same,Measured efficacy,[4]; [11],+
same,Behavioral efficacy,[4],Yes
same,concentration at 24 h,[6]; [12],64 nM
same,concentration at 24 h,[6]; [13],555 nM
COc1cc(CCC(C)NCc2ccc(C(F)(F)F)cc2)ccc1O (stereo not shown) [CT0109],Ki,sigma-2/PGRMC1 receptor,0.009 µM
same,restoration of trafficking,[1]; 15 µM added 1 hr prior to synthetic Abeta oligomers 3 µM,restores trafficking to vehicle-treated levels
same,EC50,[1]; [14],4.07 µM
same,EC50,[1]; [15],4.1 µM
same,EC50,"[1]; Rattus norvegicus, Table S1, read-out: Block Aβ-induced membrane trafficking deficits EC50",2.2 µM
same,EC50,[1]; [8],3.24 µM
same,EC50,[1]; [9],3.2 µM
same,Schild slope,[1],1
same,reversal of trafficking deficit caused by human patient derived Abeta,[1],reverse the trafficking deficit
same,effect on trafficking of compound alone,[1],without affecting trafficking on their own; also recorded: without affecting vesicles on its own
same,prevention of Abeta oligomer-induced fear memory deficits,[2],completely prevented fear memory deficits
same,effect on fear memory when administered alone,[2],no effect on memory
same,Affects Synapse density in the absence of Aβ,[3],No
same,displacement of Abeta oligomers,[5],44%±3%
same,prevention of binding of Abeta oligomers to neuronal cultures,[5],99%±7%
same,dissociation of preformed oligomers,Abeta 1–42 oligomers,not by CT0109 or CT0093
same,Measured efficacy,[4]; [10],+
same,Measured efficacy,[4]; [11],+
same,Behavioral efficacy,[4],Yes
same,concentration at 24 h,[6]; [12],41 nM
same,concentration at 24 h,[6]; [13],266 nM
"Synthetic oligomers (low concentration): Abeta 1–42 oligomers formed at 500 nM, high molecular weight fraction from Sephadex G-75 [reference compound]",Treatment duration for maximum response,[1],1 h
same,EC50,[1]; [16],0.0027 µM
"CC12CC3CC(C)(C1)CC(N)(C3)C2 [memantine, reference compound]",doses weakly blocking oligomer effects,[1]; control compound vs Abeta oligomers,above 100 µM
"Oc1cccc2cccnc12 [8-OH quinoline, reference compound]",dissociation of preformed oligomers,Abeta 1–42 oligomers,dissociated
"O[C@H]1[C@H](O)[C@@H](O)[C@H](O)[C@@H](O)[C@@H]1O [scyllo-inositol, reference compound]",activity in blocking effects of Abeta oligomers,[1],only memantine was active
C[C@H](CCc1ccc(Cl)c(Cl)c1)NCc1ccc(C(F)(F)F)cc1 [CT01344],Ki,sigma-2/PGRMC1 receptor,0.048 µM
same,EC50,[1]; [14],6.46 µM
same,EC50,[1]; [15],7.3 µM
same,EC50,[1]; [8],8.71 µM
same,EC50,[1]; [9],8.7 µM
same,Schild slope,[1],1
same,restoration of synapse loss induced by Abeta,[3]; 15 µM,100%
same,Affects Synapse density in the absence of Aβ,[3],No
same,contextual fear memory performance,[7]; 10 mg/kg/day p.o.,significantly improved fear memory performance
same,contextual fear memory performance,[7]; 30 mg/kg/day p.o.,significantly improved fear memory performance
same,displacement of Abeta oligomers,[5],66±14%
same,prevention of binding of Abeta oligomers to neuronal cultures,[5],94%±4%
same,IC50,"[5]; displacement of pre-bound oligomers, read-out: IC50, Abeta binding, treatment",3.9 µM
same,EC50,"[5]; read-out: EC50, displacement of pre-bound Abeta binding",3.9 ± 1.8 µM
same,Measured efficacy,[4]; 10 mg/kg/day oral gavage,+
same,Measured efficacy,[4]; 30 mg/kg/day oral gavage,+
same,Behavioral efficacy,[4],Yes
same,concentration at 24 h,"[6]; hAPP Swe/Ldn transgenic, 10 mg/kg/day once daily oral gavage",394 nM
same,concentration at 24 h,"[6]; hAPP Swe/Ldn transgenic, 30 mg/kg/day once daily oral gavage",793 nM
"semi-synthetic oligomers: Abeta 1–42 monomers incubated in size excluded rat brain homogenate, immunoprecipitated with 6E10 [reference compound]",Treatment duration for maximum response,[1],1 h
same,EC50,[1]; [16],0.0059 µM
"C[N+](C)(C)CCCCCC[N+](C)(C)C [hexamethonium bromide, reference compound]",activity in blocking effects of Abeta oligomers,[1],only memantine was active
